Data from ChEMBL document CHEMBL6153042, “Glycoconjugates of adefovir and tenofovir as asialoglycoprotein-mediated Anti-HBV prodrugs with enhanced liver targeting” (Eur J Med Chem, 2025).
pEC50: −log10 of the molar value.

Tests used:
[1] = Toxicity in Kunming mouse assessed as histopathological changes in liver at 200 mg/kg, iv once daily for 5 days by H and E staining based analysis; assay type: organism-based; settings: in vivo, 120 h, time 5 day
[2] = Toxicity in Kunming mouse assessed as effect on body weight at 100 to 200 mg/kg, iv administered once daily for 5 days; assay type: organism-based; settings: in vivo, 120 h, dose 100-200 mg/kg, time 5 day
LX-2 [3] = assay: Cytotoxicity against human LX2 cells at 5 uM incubated for 48 hrs by CCK8 assay; assay type: toxicity, cell-based; settings: lx-2, 48 h
[4] = Toxicity in Kunming mouse assessed as maximum tolerated dose administered intravenously as once daily dose for 5 days; settings: in vivo, route iv, time 5 day
LX-2 [5] = assay: Cytotoxicity against human LX2 cells assessed as cell growth inhibition at 10 uM incubated for 48 hrs by CCK8 assay relative to control; assay type: toxicity, cell-based; settings: lx-2, 48 h, 10 µM
[6] = Cytotoxicity against human HepG2.2.15 cells assessed as inhibition of cell proliferation by CCK8 assay; assay type: toxicity, cell-based, HepG2 2.2.15
Hepatitis B virus [7] = assay: Antiviral activity against Hepatitis B virus infected in human HepG2.2.15 cells assessed as inhibition of HBV DNA replication incubated for 10 day by qPCR analysis; assay type: functional, organism-based; settings: HepG2.2.15, 240 h
[8] = Selectivity index, the ratio of CC50 for human HepG2.2.15 cells to EC50 for antiviral activity against HBV in human HepG2.2.15 cells assessed as inhibition of HBV DNA replication; assay type: toxicity, cell-based; settings: read-out: Ratio CC50/EC50
[9] = Toxicity in Kunming mouse assessed as histopathological changes in heart at 200 mg/kg, iv once daily for 5 days by H and E staining based analysis; assay type: organism-based; settings: in vivo, 120 h, time 5 day
[10] = Toxicity in Kunming mouse assessed as histopathological changes in kidney at 200 mg/kg, iv once daily for 5 days by H and E staining based analysis; assay type: organism-based; settings: in vivo, 120 h, time 5 day
[11] = Stability of compound in PBS buffer assessed as half-life by high-performance liquid chromatography; assay type: physicochemical
[12] = Drug uptake in Sprague-Dawley rat liver at 10 mg/kg, iv measured after 1 to 6 hrs by LC-MS/MS analysis; assay type: ADME, organism-based; settings: in vivo, time 1-6 hrs
[13] = Drug metabolism in plasma of Sprague-Dawley rat assessed as (1-(36-(((2R,3R,4S,5R,6R)-3-acetamido-4,5-dihydroxy-6-(hydroxymethyl)tetrahydro-2H-pyran-2-yl)oxy)-21,21-bis((3-((3-(5-(((2R,3R,4S,5R,6R)-3-acetamido-4,5-dihydroxy-6-(hydroxymethyl)tetrahydro-2H-pyran-2-yl)oxy)pentanamido)propyl)amino)-3-oxopropoxy)methyl)-16,19,26,32-tetraoxo-3,6,9,12,23-pentaoxa-15,20,27,31-tetraazahexatriacontyl)-1H-1,2,3-triazol-4-yl)methyl hydrogen ((((R)-1-(6-amino-9H-purin-9-yl)propan-2-yl)oxy)methyl)phosphonate formation measured at 2.1 mins by HPLC analysis; assay type: ADME, cell-free; settings: 0.035 h
[14] = Toxicity in Kunming mouse assessed as effect on heart colour at 100 to 200 mg/kg, iv once daily for 5 days; assay type: organism-based; settings: in vivo, 120 h, dose 100-200 mg/kg, time 5 day
[15] = Toxicity in Kunming mouse assessed as effect on liver colour at 100 to 200 mg/kg, iv once daily for 5 days; assay type: organism-based; settings: in vivo, 120 h, dose 100-200 mg/kg, time 5 day
[16] = Toxicity in Kunming mouse assessed as effect on kidney colour at 100 to 200 mg/kg, iv once daily for 5 days; assay type: organism-based; settings: in vivo, 120 h, dose 100-200 mg/kg, time 5 day
[17] = Toxicity in Kunming mouse assessed as effect on heart size at 100 to 200 mg/kg, iv once daily for 5 days; assay type: organism-based; settings: in vivo, 120 h, dose 100-200 mg/kg, time 5 day
[18] = Toxicity in Kunming mouse assessed as effect on liver size at 100 to 200 mg/kg, iv once daily for 5 days; assay type: organism-based; settings: in vivo, 120 h, dose 100-200 mg/kg, time 5 day
[19] = Toxicity in Kunming mouse assessed as effect on kidney size at 100 to 200 mg/kg, iv once daily for 5 days; assay type: organism-based; settings: in vivo, 120 h, dose 100-200 mg/kg, time 5 day
[20] = Toxicity in Kunming mouse assessed as effect on heart weight at 100 to 200 mg/kg, iv once daily for 5 days; assay type: organism-based; settings: in vivo, 120 h, dose 100-200 mg/kg, time 5 day
[21] = Toxicity in Kunming mouse assessed as effect on liver weight at 100 to 200 mg/kg, iv once daily for 5 days; assay type: organism-based; settings: in vivo, 120 h, dose 100-200 mg/kg, time 5 day
[22] = Toxicity in Kunming mouse assessed as effect on kidney weight at 100 to 200 mg/kg, iv once daily for 5 days; assay type: organism-based; settings: in vivo, 120 h, dose 100-200 mg/kg, time 5 day
Hepatitis B virus [23] = assay: Antiviral activity against Hepatitis B virus infected in human HepG2.2.15 cells assessed as inhibition of HBV DNA replication incubated for 9 day; settings: HepG2.2.15, 216 h

CC(=O)N[C@H]1[C@H](OCCCCC(=O)NCCCNC(=O)CCOCC(COCCC(=O)NCCCNC(=O)CCCCO[C@@H]2O[C@H](CO)[C@H](O)[C@@H](O)[C@H]2NC(C)=O)(COCCC(=O)NCCCNC(=O)CCCCO[C@@H]2O[C@H](CO)[C@H](O)[C@@H](O)[C@H]2NC(C)=O)NC(=O)CCC(=O)NCCOCCOCCOCCOCCn2cc(COP(=O)(CO[C@H](C)Cn3cnc4c(N)ncnc43)OCOC(=O)OC(C)C)nn2)O[C@H](CO)[C@H](O)[C@H]1O (stereo not given in full)
Activity [1]: Non-toxic | Activity [2]: Non-toxic | Activity (LX-2 [3]): Toxic | MTD at 120 h [4]: ~200 mg/kg | Activity (LX-2 [5]): Toxic | CC50 [6]: > 100 µM | pEC50 (Hepatitis B virus [7]): 7.02 | selectivity ratio [8]: > 1050 | Activity [9]: Non-toxic | Activity [10]: Non-toxic | half-life [11]: > 24 h | Drug uptake [12]: Active | Drug metabolism [13]: metabolite_detected | Activity [14]: Non-toxic | Activity [15]: Non-toxic | Activity [16]: Non-toxic | Activity [17]: Non-toxic | Activity [18]: Non-toxic | Activity [19]: Non-toxic | Activity [20]: Non-toxic | Activity [21]: Non-toxic | Activity [22]: Non-toxic

CC(C)OC(=O)[C@H](C)N[P@](=O)(CO[C@H](C)Cn1cnc2c(N)ncnc21)Oc1ccccc1 [TENOFOVIR ALAFENAMIDE]
Activity (LX-2 [3]): Toxic | Activity (LX-2 [5]): Toxic | pEC50 (Hepatitis B virus [23]): 7.91
